Measured values published in ChEMBL document CHEMBL1201861, “Genomics of Drug Sensitity in Cancer screening data, Wellcome Trust Sanger Institute”.

How the values were obtained:
Experiment in all cases: cells
[1] = tested on: CTB-1; format: functional, cell-based, Homo sapiens; conditions: Homo sapiens, CTB-1
Description: SANGER: Inhibition of human CTB-1 cell growth in a cell viability assay.

[2] = tested on: GT3TKB; format: functional, cell-based, Homo sapiens; conditions: Homo sapiens, GT3TKB;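 further: growth inhibition of the cell line, read out with a cell viability assay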
Description: SANGER: Inhibition of human GT3TKB cell growth in a cell viability assay.

[3] = tested on: SNB-75; format: functional, cell-based, Homo sapiens; conditions: Homo sapiens, SNB-75;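 further: cell viability assay measuring growth inhibition of human SNB-75 cells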
Description: SANGER: Inhibition of human SNB75 cell growth in a cell viability assay.

[4] = tested on: NCI-H1770; format: functional, cell-based, Homo sapiens; conditions: Homo sapiens, NCI-H1770;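 further: growth inhibition of NCI-H1770 cells determined with a viability readout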
Description: SANGER: Inhibition of human NCI-H1770 cell growth in a cell viability assay.

[5] = tested on: ML-2; format: functional, cell-based, Homo sapiens; conditions: Homo sapiens, ML-2;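 further: growth inhibition of ML-2 cells, measured with a cell viability readout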
Description: SANGER: Inhibition of human ML-2 cell growth in a cell viability assay.

[6] = tested on: MOLT-4; format: functional, cell-based, Homo sapiens; conditions: Homo sapiens, MOLT-4;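 further: growth inhibition of MOLT-4 cells, determined with a cell viability readout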
Description: SANGER: Inhibition of human MOLT-4 cell growth in a cell viability assay.

[7] = tested on: BV-173; format: functional, cell-based, Homo sapiens; conditions: Homo sapiens, BV-173
Description: SANGER: Inhibition of human BV-173 cell growth in a cell viability assay.

[8] = tested on: NCI-H1395; format: functional, cell-based, Homo sapiens; conditions: Homo sapiens, NCI-H1395;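 further: cell viability assay read-out quantifying reduced proliferation of human NCI-H1395 cells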
Description: SANGER: Inhibition of human NCI-H1395 cell growth in a cell viability assay.

[9] = tested on: NOS-1; format: functional, cell-based, Homo sapiens; conditions: Homo sapiens, NOS-1;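 further: growth inhibition of the human NOS-1 cell line, read out with a cell viability assay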
Description: SANGER: Inhibition of human NOS-1 cell growth in a cell viability assay.

[10] = tested on: NB6; format: functional, cell-based, Homo sapiens; conditions: Homo sapiens, NB6;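 further: growth inhibition of NB6 cells, read out by a cell viability assay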
Description: SANGER: Inhibition of human NB6 cell growth in a cell viability assay.

[11] = tested on: KE-37; format: functional, cell-based, Homo sapiens; conditions: Homo sapiens, KE-37;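 further: growth inhibition of KE-37 cells, read out with a cell viability assay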
Description: SANGER: Inhibition of human KE-37 cell growth in a cell viability assay.

[12] = tested on: KINGS-1; format: functional, cell-based, Homo sapiens; conditions: Homo sapiens, KINGS-1;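 further: cell viability assay measuring suppression of KINGS-1 cell growth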
Description: SANGER: Inhibition of human KINGS-1 cell growth in a cell viability assay.

[13] = tested on: NCI-H526; format: functional, cell-based, Homo sapiens; conditions: Homo sapiens, NCI-H526;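 further: growth inhibition of the human NCI-H526 cell line, measured by a cell viability assay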
Description: SANGER: Inhibition of human NCI-H526 cell growth in a cell viability assay.

[14] = tested on: U-266; format: functional, cell-based, Homo sapiens; conditions: Homo sapiens, U-266
Description: SANGER: Inhibition of human U-266 cell growth in a cell viability assay.

[15] = tested on: KG-1; format: functional, cell-based, Homo sapiens; conditions: Homo sapiens, KG-1;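 further: growth inhibition of KG-1 cells, read out by a cell viability assay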
Description: SANGER: Inhibition of human KG-1 cell growth in a cell viability assay.

[16] = tested on: IST-MEL1; format: functional, cell-based, Homo sapiens; conditions: Homo sapiens, IST-MEL1;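 further: growth inhibition of the cell line, read out with a cell viability assay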
Description: SANGER: Inhibition of human IST-MEL1 cell growth in a cell viability assay.

[17] = tested on: NCI-H1581; format: functional, cell-based, Homo sapiens; conditions: Homo sapiens, NCI-H1581;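 further: cell growth inhibition read out by a viability assay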
Description: SANGER: Inhibition of human NCI-H1581 cell growth in a cell viability assay.

[18] = tested on: GAK; format: functional, cell-based, Homo sapiens; conditions: Homo sapiens, GAK;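 further: cell growth inhibition read out by a cell viability assay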
Description: SANGER: Inhibition of human GAK cell growth in a cell viability assay.

[19] = tested on: ES5; format: functional, cell-based, Homo sapiens; conditions: Homo sapiens, ES5;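 further: growth inhibition of human ES5 cells, read out by a cell viability assay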
Description: SANGER: Inhibition of human ES5 cell growth in a cell viability assay.

[20] = tested on: U-87 MG; format: functional, cell-based, Homo sapiens, U-87MG ATCC; conditions: Homo sapiens, U-87 MG;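 further: growth inhibition of the cells measured with a viability assay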
Description: SANGER: Inhibition of human U-87-MG cell growth in a cell viability assay.

[21] = tested on: 697; format: functional, cell-based, Homo sapiens; conditions: Homo sapiens
Description: SANGER: Inhibition of human 697 cell growth in a cell viability assay.

[22] = tested on: NCI-H720; format: functional, cell-based, Homo sapiens; conditions: Homo sapiens, NCI-H720;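 further: growth inhibition of human NCI-H720 cells determined by a cell viability assay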
Description: SANGER: Inhibition of human NCI-H720 cell growth in a cell viability assay.

[23] = tested on: KLE; format: functional, cell-based; conditions: Homo sapiens;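 further: growth inhibition of human KLE cells, read out with a cell viability assay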
Description: SANGER: Inhibition of human KLE cell growth in a cell viability assay.

[24] = tested on: HCC1187; format: functional, cell-based, Homo sapiens; conditions: Homo sapiens, HCC1187;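 further: growth inhibition of HCC1187 cells, read out with a cell viability assay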
Description: SANGER: Inhibition of human HCC1187 cell growth in a cell viability assay.

[25] = tested on: K5; format: functional, cell-based, Homo sapiens; conditions: Homo sapiens, K5
Description: SANGER: Inhibition of human K5 cell growth in a cell viability assay.

[26] = tested on: no-11; format: functional, cell-based, Homo sapiens; conditions: Homo sapiens;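 further: growth inhibition of human NO-11 cells, read out with a cell viability assay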
Description: SANGER: Inhibition of human no-11 cell growth in a cell viability assay.

[27] = tested on: TE-10; format: functional, cell-based, Homo sapiens; conditions: Homo sapiens, TE-10;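 further: growth inhibition of TE-10 cells, measured by a cell viability assay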
Description: SANGER: Inhibition of human TE-10 cell growth in a cell viability assay.

[28] = tested on: COLO-668; format: functional, cell-based, Homo sapiens; conditions: Homo sapiens, COLO-668
Description: SANGER: Inhibition of human COLO-668 cell growth in a cell viability assay.

[29] = tested on: MFM-223; format: functional, cell-based, Homo sapiens; conditions: Homo sapiens, MFM-223
Description: SANGER: Inhibition of human MFM-223 cell growth in a cell viability assay.

[30] = tested on: GB-1; format: functional, cell-based, Homo sapiens; conditions: Homo sapiens, GB-1;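 further: growth of GB-1 cells judged by a viability assay, IC50 marks the concentration inhibiting growth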
Description: SANGER: Inhibition of human GB-1 cell growth in a cell viability assay.

[31] = tested on: BB30-HNC; format: functional, cell-based, Homo sapiens; conditions: Homo sapiens, BB30-HNC;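 further: growth inhibition of the cultured cell line, read out by a cell viability assay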
Description: SANGER: Inhibition of human BB30-HNC cell growth in a cell viability assay.

[32] = tested on: NCI-H1092; format: functional, cell-based, Homo sapiens; conditions: Homo sapiens, NCI-H1092;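 further: cell growth inhibition measured with a cell viability assay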
Description: SANGER: Inhibition of human NCI-H1092 cell growth in a cell viability assay.

[33] = tested on: NCI-H2126; format: functional, cell-based, Homo sapiens; conditions: Homo sapiens, NCI-H2126;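 further: growth inhibition of the cancer cell line, determined with a cell viability readout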
Description: SANGER: Inhibition of human NCI-H2126 cell growth in a cell viability assay.

[34] = tested on: EM-2; format: functional, cell-based, Homo sapiens; conditions: Homo sapiens, EM-2;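 further: growth inhibition of EM-2 cells, read out with a cell viability assay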
Description: SANGER: Inhibition of human EM-2 cell growth in a cell viability assay.

[35] = tested on: D-502MG; format: functional, cell-based, Homo sapiens; conditions: Homo sapiens, D-502MG
Description: SANGER: Inhibition of human D-502MG cell growth in a cell viability assay.

[36] = tested on: PSN1; format: functional, cell-based, Homo sapiens; conditions: Homo sapiens, PSN1;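 further: suppression of growth of human PSN1 cells, read out by a cell viability assay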
Description: SANGER: Inhibition of human PSN1 cell growth in a cell viability assay.

[37] = tested on: KARPAS-299; format: functional, cell-based, Homo sapiens; conditions: Homo sapiens, KARPAS-299
Description: SANGER: Inhibition of human KARPAS-299 cell growth in a cell viability assay.

[38] = tested on: MOLT-16; format: functional, cell-based, Homo sapiens; conditions: Homo sapiens, MOLT-16;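 further: growth inhibition of human MOLT-16 cells, read out with a cell viability assay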
Description: SANGER: Inhibition of human MOLT-16 cell growth in a cell viability assay.

[39] = tested on: IA-LM; format: functional, cell-based; conditions: Homo sapiens;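 further: cell viability assay measuring growth inhibition of human IA-LM cells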
Description: SANGER: Inhibition of human IA-LM cell growth in a cell viability assay.

[40] = tested on: OCI-AML2; format: functional, cell-based, Homo sapiens; conditions: Homo sapiens, OCI-AML2;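 further: growth inhibition of OCI-AML2 cells, read out with a cell viability assay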
Description: SANGER: Inhibition of human OCI-AML2 cell growth in a cell viability assay.

[41] = tested on: NCI-H1650; format: functional, cell-based, Homo sapiens; conditions: Homo sapiens, NCI-H1650;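 further: growth inhibition of human NCI-H1650 cells measured by a cell viability assay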
Description: SANGER: Inhibition of human NCI-H1650 cell growth in a cell viability assay.

[42] = tested on: BB49-HNC; format: functional, cell-based, Homo sapiens; conditions: Homo sapiens, BB49-HNC;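 further: cell viability assay read-out, reported as inhibition of BB49-HNC cell growth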
Description: SANGER: Inhibition of human BB49-HNC cell growth in a cell viability assay.

[43] = tested on: LB996-RCC; format: functional, cell-based, Homo sapiens; conditions: Homo sapiens, LB996-RCC
Description: SANGER: Inhibition of human LB996-RCC cell growth in a cell viability assay.

[44] = tested on: RKO; format: functional, cell-based, Homo sapiens; conditions: Homo sapiens, RKO;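 further: growth inhibition of human RKO cells, read out with a cell viability assay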
Description: SANGER: Inhibition of human RKO cell growth in a cell viability assay.

[45] = tested on: ATN-1; format: functional, cell-based, Homo sapiens; conditions: Homo sapiens, ATN-1;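 further: growth inhibition of human ATN-1 cells, read out with a cell viability assay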
Description: SANGER: Inhibition of human ATN-1 cell growth in a cell viability assay.

[46] = tested on: VA-ES-BJ; format: functional, cell-based, Homo sapiens; conditions: Homo sapiens, VA-ES-BJ;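 further: growth inhibition of the VA-ES-BJ cell line, read out by a cell viability assay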
Description: SANGER: Inhibition of human VA-ES-BJ cell growth in a cell viability assay.

[47] = tested on: SF-539; format: functional, cell-based, Homo sapiens; conditions: Homo sapiens, SF-539;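 further: Read-out is a cell viability assay, with IC50 reflecting inhibition of cell growth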
Description: SANGER: Inhibition of human SF539 cell growth in a cell viability assay.

[48] = tested on: EW-3; format: functional, cell-based, Homo sapiens; conditions: Homo sapiens, EW-3;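 further: cell viability assay read-out, IC50 reflects inhibition of growth of the EW-3 cells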
Description: SANGER: Inhibition of human EW-3 cell growth in a cell viability assay.

[49] = tested on: MN-60; format: functional, cell-based, Homo sapiens; conditions: Homo sapiens, MN-60;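 further: growth inhibition of the MN-60 cell line, determined with a cell viability assay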
Description: SANGER: Inhibition of human MN-60 cell growth in a cell viability assay.

[50] = tested on: LS-123; format: functional, cell-based, Homo sapiens; conditions: Homo sapiens, LS-123
Description: SANGER: Inhibition of human LS-123 cell growth in a cell viability assay.

C=CC(=O)N1CCCC(Nc2nc(Nc3ccc(N(C)C(=O)CC)cc3)nc3[nH]cnc23)C1 (stereo not given) showed an IC50 [1] of over 10.2 µM, an IC50 [2] of over 10.2 µM and an IC50 [3] of over 10.2 µM. It also gave an IC50 [4] of over 10.2 µM, an IC50 [5] of over 10200 nM and an IC50 [6] of over 10.2 µM. It also gave an IC50 [7] of over 10.2 µM, an IC50 [8] of over 10.2 µM and an IC50 [9] of over 10200 nM. It also gave an IC50 [10] of over 10.2 µM, an IC50 [11] of over 10.2 µM and an IC50 [12] of over 10.2 µM. The IC50 [13] was over 10.2 µM, the IC50 [14] was over 10.2 µM and the IC50 [15] was over 10.2 µM. It also gave an IC50 [16] of over 10.2 µM, an IC50 [17] of over 10.2 µM and an IC50 [18] of over 10.2 µM. The IC50 [19] was over 10.2 µM, the IC50 [20] was over 10.2 µM and the IC50 [21] was over 10200 nM. For the same molecule, the IC50 [22] was over 10.2 µM, the IC50 [23] was over 10.2 µM and the IC50 [24] was over 10.2 µM. The IC50 [25] was over 10200 nM, the IC50 [26] was over 10.2 µM and the IC50 [27] was over 10200 nM. It also gave an IC50 [28] of over 10200 nM, an IC50 [29] of over 10.2 µM and an IC50 [30] of over 10200 nM. It also gave an IC50 [31] of 3410 nM, an IC50 [32] of over 10.2 µM and an IC50 [33] of over 10.2 µM. The IC50 [34] was over 10.2 µM, the IC50 [35] was over 10.2 µM and the IC50 [36] was over 10200 nM. For the same molecule, the IC50 [37] was over 10.2 µM, the IC50 [38] was over 10.2 µM and the IC50 [39] was over 10.2 µM. For the same molecule, the IC50 [40] was over 10200 nM, the IC50 [41] was over 10.2 µM and the IC50 [42] was over 10.2 µM. It also gave an IC50 [43] of over 10200 nM, an IC50 [44] of over 10200 nM and an IC50 [45] of over 10200 nM. It also gave an IC50 [46] of over 10.2 µM, an IC50 [47] of over 10.2 µM and an IC50 [48] of over 10.2 µM. It also gave an IC50 [49] of over 10.2 µM and an IC50 [50] of over 10.2 µM.

Cc1cc(N2CCOCC2)cc2[nH]c(-c3c(NC[C@@H](O)c4cccc(Cl)c4)cc[nH]c3=O)nc12 was tested, and the IC50 [1] was over 5.12 µM, the IC50 [2] was over 5.12 µM and the IC50 [3] was 3.43 µM. It also gave an IC50 [4] of over 5.12 µM, an IC50 [5] of 192 nM and an IC50 [6] of 4.58 µM. It also gave an IC50 [7] of over 5.12 µM, an IC50 [8] of over 5.12 µM and an IC50 [9] of 74.4 nM. It also gave an IC50 [10] of over 5.12 µM, an IC50 [11] of over 5.12 µM and an IC50 [12] of over 5.12 µM. It also gave an IC50 [13] of over 5.12 µM, an IC50 [14] of over 5.12 µM and an IC50 [15] of over 5.12 µM. It also gave an IC50 [16] of 4.6 µM, an IC50 [17] of over 5.12 µM and an IC50 [18] of over 5.12 µM. For the same molecule, the IC50 [19] was over 5.12 µM, the IC50 [20] was over 5.12 µM and the IC50 [21] was 1120 nM. For the same molecule, the IC50 [22] was over 5.12 µM, the IC50 [23] was 3.62 µM and the IC50 [24] was over 5.12 µM. It also gave an IC50 [25] of 1780 nM, an IC50 [26] of over 5.12 µM and an IC50 [27] of 1200 nM. For the same molecule, the IC50 [28] was 1190 nM, the IC50 [29] was over 5.12 µM and the IC50 [30] was 495 nM. For the same molecule, the IC50 [31] was 1120 nM, the IC50 [32] was over 5.12 µM and the IC50 [33] was 3.98 µM. The IC50 [34] was over 5.12 µM, the IC50 [35] was over 5.12 µM and the IC50 [36] was 395 nM. The IC50 [37] was 3.85 µM, the IC50 [38] was 5.02 µM and the IC50 [39] was over 5.12 µM. For the same molecule, the IC50 [40] was 1310 nM, the IC50 [41] was over 5.12 µM and the IC50 [42] was over 5.12 µM. It also gave an IC50 [43] of 816 nM, an IC50 [44] of 1000 nM and an IC50 [45] of 250 nM. For the same molecule, the IC50 [46] was over 5.12 µM, the IC50 [47] was over 5.12 µM and the IC50 [48] was 4.76 µM. It also gave an IC50 [49] of over 5.12 µM and an IC50 [50] of over 5.12 µM.
